Consider 6 molecules from US5030732A, “Aminoethylphosphinic acid derivatives” (Merck & Co., Inc., priority 1988, dated 1991).

Converted amounts (≈) assume the structure as drawn.

The subject of one experiment is racemase. The conditions noted are these: in words; literature; formed by bacterial peptidase; cited from earlier work.
The nature of experiment [1]: Antibacterial activity, MIC by Method 1 (method of Atherton et al). Type of experiment: cell-based. The following applies: Enterococcus cloacae, read-out: Minimum inhibiting concentration (MIC). The protocol: (§1) Antibacterial activity was tested by two methods.
(§2) Minimum inhibiting concentration (MIC, μg/ml) was determined by the method of Atherton et al (Antimicrobial Agent and Chemotherapy 15, 677, 1979).
(§3) Antibacterial activity: MIC (μ g/ml) [by Method 1]

In a further experiment the test system is E. coli DC 2. The description is as above. It counts as cell-based. The conditions noted are these: for MIC: Escherichia coli, DC2, read-out: Minimum inhibiting concentration (MIC). The protocol: as §1, §2, §3
A further experiment concerns E. coli TEM 2. The description is as above. Type of experiment: cell-based. The following applies: for MIC: Escherichia coli, TEM2, read-out: Minimum inhibiting concentration (MIC). The protocol: as §1, §2, §3
The test system of the next experiment is E. coli. Described as above. It counts as cell-based. The conditions noted are these: for MIC: Escherichia coli, read-out: Minimum inhibiting concentration (MIC). The protocol: as §1, §2, §3
Another experiment concerns Proteus vulgaris. The description is as above. It counts as cell-based. The conditions noted are these: for MIC: read-out: Minimum inhibiting concentration (MIC). The protocol: as §1, §2, §3
In the next experiment the test system is Pseudomonas aeruginosa. The experiment is described as above. Type of experiment: cell-based. The following applies: for MIC: read-out: Minimum inhibiting concentration (MIC). The protocol:
as §1, §2, §3

For a further experiment, the system named is Salmonella typhimurium. The description is as above. Type of experiment: cell-based. The conditions noted are these: for MIC: Salmonella enterica, read-out: Minimum inhibiting concentration (MIC). The method, then:
as §1, §2, §3

The test system of the next experiment is Serratia marcescens. Described as above. It counts as cell-based. The following applies: for MIC: read-out: Minimum inhibiting concentration (MIC). The protocol:
as §1, §2, §3

Another experiment has as its system Staphylococcus aureus. The experiment is described as above. Type of experiment: cell-based. The following applies: for MIC: read-out: Minimum inhibiting concentration (MIC). The method, then: as §1, §2, §3
A further experiment deals with Streptococcus faecalis. The experiment is described as above. It counts as cell-based. The following applies: for MIC: Enterococcus faecalis, read-out: Minimum inhibiting concentration (MIC). The method, then: as §1, §2, §3
Experiment [2] has as its system bacterial cell wall synthesis. The conditions noted are these: in words; literature; cited from earlier work.
The test system of the next experiment is Enterococcus cloacae. Kind of experiment: Antibacterial activity, MIC by Method 1 (method of Atherton et al). It counts as cell-based. The method, then:
as §1, §2, §3

Another experiment relates to Klebsiella pneumoniae. Described as above. Type of experiment: cell-based. The conditions noted are these: for MIC: read-out: Minimum inhibiting concentration (MIC). The method, then: as §1, §2, §3

`CC(N)P(=O)(O)O` (stereo not drawn) [1-aminoethylphosphonic acid]: the “inhibition of racemase activity” value in the experiment on racemase was “inhibiting racemase activity”.
As for `CCC[C@H](N)C(=O)NC(CP(=O)(O)C(C)N)C(=O)O` (stereo partly drawn) [Compound No. 6-1, (1-Aminoethyl)(2-L-norvalylamino-2-carboxyethyl)phosphinic acid], the MIC in experiment [1] was 64 µg/mL (≈ 217 µM); with E. coli DC 2, 16 µg/mL (≈ 54.2 µM); with E. coli TEM 2 it was 256 µg/mL (≈ 867 µM); in the experiment with E. coli, 16 µg/mL (≈ 54.2 µM); in the experiment on Proteus vulgaris it was 1 µg/mL (≈ 3.39 µM); with Pseudomonas aeruginosa, above 256 µg/mL. For the same molecule, the MIC was 128 µg/mL (≈ 433 µM) in the experiment with Salmonella typhimurium, above 256 µg/mL in the experiment on Serratia marcescens, 32 µg/mL (≈ 108 µM) in the experiment on Staphylococcus aureus and 16 µg/mL (≈ 54.2 µM) with Streptococcus faecalis.
`CC(N)C(=O)NC(C)P(=O)(O)O` (stereo not drawn) [alaphosphalin]: the “antibacterial action / inhibition of bacterial cell wall synthesis” value in [2] is “antibacterial action”.
On to “(D-1-aminoethyl)(2-L-nor-valylamino -2-L- or -D-carboxyethyl)phosphinic acid [6-2]”, for which the “Minimum inhibiting concentration (MIC)” value in the experiment on E. coli DC 2 was found to be 4 µg/mL; with E. coli TEM 2 it was 64 µg/mL; in the experiment on E. coli, 8 µg/mL; in the experiment on Enterococcus cloacae, 16 µg/mL; in the experiment on Klebsiella pneumoniae, 64 µg/mL; in the experiment on Proteus vulgaris, 1 µg/mL. The “Minimum inhibiting concentration (MIC)” value is above 256 µg/mL in the experiment on Pseudomonas aeruginosa; 32 µg/mL in the experiment with Salmonella typhimurium; 128 µg/mL in the experiment with Serratia marcescens; 8 µg/mL with Staphylococcus aureus; 1 µg/mL with Streptococcus faecalis.
With `CCC[C@H](NC(=O)[C@H](C)N)C(=O)NC(CP(=O)(O)C(C)N)C(=O)O` (stereo partly drawn) [Compound No. 20, (1-Aminoethyl)(2-L-alanyl-L-norvalylamino-2-carboxyethyl)phosphinic acid], the MIC in [1] was 0.5 µg/mL (≈ 1.36 µM); with E. coli DC 2, at most 0.25 µg/mL; in the experiment with E. coli TEM 2, at most 0.25 µg/mL; in the experiment with E. coli, 0.5 µg/mL (≈ 1.36 µM); with Klebsiella pneumoniae, at most 0.25 µg/mL; in the experiment on Proteus vulgaris, 0.5 µg/mL (≈ 1.36 µM). The MIC in the experiment with Pseudomonas aeruginosa is 256 µg/mL (≈ 699 µM); in the experiment on Salmonella typhimurium, 0.5 µg/mL (≈ 1.36 µM); in the experiment with Serratia marcescens, 0.5 µg/mL (≈ 1.36 µM); in the experiment on Staphylococcus aureus it was 256 µg/mL (≈ 699 µM); with Streptococcus faecalis it was at most 0.25 µg/mL.
As for `CSCC[C@H](N)C(=O)NC(CP(=O)(O)C(C)N)C(=O)O` (stereo partly drawn) [Compound No. 10, (1-Aminoethyl)(2-L-methionylamino-2-carboxyethyl)phosphinic acid], the MIC in [1] was 256 µg/mL (≈ 782 µM); in the experiment with E. coli DC 2, 32 µg/mL (≈ 97.8 µM); with E. coli TEM 2, 256 µg/mL (≈ 782 µM); in the experiment on E. coli, 64 µg/mL (≈ 196 µM); in the experiment on Klebsiella pneumoniae, above 256 µg/mL; in the experiment on Proteus vulgaris it was 8 µg/mL (≈ 24.4 µM). The MIC in the experiment on Pseudomonas aeruginosa was above 256 µg/mL; in the experiment with Salmonella typhimurium, above 256 µg/mL; in the experiment on Serratia marcescens, above 256 µg/mL; with Staphylococcus aureus, 4 µg/mL (≈ 12.2 µM); in the experiment with Streptococcus faecalis, 2 µg/mL (≈ 6.11 µM).
